Measured values taken from the supplement of paper PMC10307832.

Tests used:
Assay in all cases: relative viability (nuclei count vs DMSO), 5 days (fraction); higher = more cells survive
[1] = test system: LCLC-103H
Outline: (§1)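 Medians of duplicate plates are given as relative viability. That measure is the nuclei count in treated wells divided by the count in vehicle wells. Counts were taken on 4× images of lung cancer cell lines in 1536-well plates, 5 days after pin-tool dosing the day after seeding with one drug alone or a fixed anchor-drug dose plus five library-drug doses (not always all listed) in √10 steps.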

[2] = test system: NCI-H441
Outline: as §1

[3] = test system: HCC-827
Outline: as §1

[4] = test system: ABC-1
Outline: as §1

[5] = test system: NCI-H1651
Outline: as §1

[6] = test system: NCI-H1355
Outline: as §1

[7] = test system: NCI-H2085
Outline: as §1

[8] = test system: NCI-H1792
Outline: as §1

[9] = test system: CAL-12T
Outline: as §1

[10] = test system: NCI-H23
Outline: as §1

[11] = test system: LU99A
Outline: as §1

[12] = test system: H3255
Outline: as §1

[13] = test system: NCI-H322M
Outline: as §1

[14] = test system: NCI-H1437
Outline: as §1

[15] = test system: NCI-H2228
Outline: as §1

[16] = test system: NCI-H2342
Outline: as §1

[17] = test system: UMC-11
Outline: as §1

[18] = test system: RERF-LC-KJ
Outline: as §1

[19] = test system: LK-2
Outline: as §1

[20] = test system: HCC-15
Outline: as §1

[21] = test system: NCI-H2405
Outline: as §1

[22] = test system: 201T
Outline: as §1

SMILES: COCC1(CO)C(=O)C2CCN1CC2 (stereo not drawn) [PRIMA-1MET] + CCNC(=O)c1noc(-c2cc(C(C)C)c(O)cc2O)c1-c1ccc(CN2CCOCC2)cc1 [Luminespib] (partner 0.01 µM)
- relative viability ([1]; first compound 0.2 µM): 1.05
- relative viability ([1]; first compound 0.6325 µM): 0.831
- relative viability ([1]; first compound 2 µM): 0.892
- relative viability ([1]; first compound 6.325 µM): 0.985
- relative viability ([1]; first compound 20 µM): 0.307
- relative viability ([2]; first compound 0.2 µM): 0.437
- relative viability ([2]; first compound 0.6325 µM): 0.334
- relative viability ([2]; first compound 2 µM): 0.276
- relative viability ([2]; first compound 6.325 µM): 0.365
- relative viability ([2]; first compound 20 µM): 0.277
- relative viability ([3]; first compound 0.2 µM): 0.761
- relative viability ([3]; first compound 0.6325 µM): 0.624
- relative viability ([3]; first compound 2 µM): 0.303
- relative viability ([3]; first compound 6.325 µM): 0.477
- relative viability ([3]; first compound 20 µM): 0.447
- relative viability ([4]; first compound 0.2 µM): 0.534
- relative viability ([4]; first compound 0.6325 µM): 0.375
- relative viability ([4]; first compound 2 µM): 0.393
- relative viability ([4]; first compound 6.325 µM): 0.607
- relative viability ([4]; first compound 20 µM): 0.171
- relative viability ([5]; first compound 0.2 µM): 0.99
- relative viability ([5]; first compound 0.6325 µM): 0.704
- relative viability ([5]; first compound 2 µM): 0.66
- relative viability ([5]; first compound 6.325 µM): 1.06
- relative viability ([5]; first compound 20 µM): 0.824
- relative viability ([6]; first compound 0.2 µM): 0.859
- relative viability ([6]; first compound 0.6325 µM): 0.556
- relative viability ([6]; first compound 2 µM): 0.695
- relative viability ([6]; first compound 6.325 µM): 0.734
- relative viability ([6]; first compound 20 µM): 0.673
- relative viability ([7]; first compound 0.2 µM): 0.55
- relative viability ([7]; first compound 0.6325 µM): 0.44
- relative viability ([7]; first compound 2 µM): 0.3
- relative viability ([7]; first compound 6.325 µM): 0.42
- relative viability ([7]; first compound 20 µM): 0.267
- relative viability ([8]; first compound 0.2 µM): 0.533
- relative viability ([8]; first compound 0.6325 µM): 0.491
- relative viability ([8]; first compound 2 µM): 0.394
- relative viability ([8]; first compound 6.325 µM): 0.466
- relative viability ([8]; first compound 20 µM): 0.45
- relative viability ([9]; first compound 0.2 µM): 0.363
- relative viability ([9]; first compound 0.6325 µM): 0.383
- relative viability ([9]; first compound 2 µM): 0.547
- relative viability ([9]; first compound 6.325 µM): 0.918
- relative viability ([9]; first compound 20 µM): 0.166
- relative viability ([10]; first compound 0.2 µM): 0.24
- relative viability ([10]; first compound 0.6325 µM): 0.234
- relative viability ([10]; first compound 2 µM): 0.22
- relative viability ([10]; first compound 6.325 µM): 0.209
- relative viability ([10]; first compound 20 µM): 0.0464
- relative viability ([11]; first compound 0.2 µM): 0.216
- relative viability ([11]; first compound 0.6325 µM): 0.233
- relative viability ([11]; first compound 2 µM): 0.203
- relative viability ([11]; first compound 6.325 µM): 0.221
- relative viability ([11]; first compound 20 µM): 0.0965
- relative viability ([12]; first compound 0.2 µM): 0.933
- relative viability ([12]; first compound 0.6325 µM): 0.813
- relative viability ([12]; first compound 2 µM): 0.741
- relative viability ([12]; first compound 6.325 µM): 0.868
- relative viability ([12]; first compound 20 µM): 0.91
- relative viability ([13]; first compound 0.2 µM): 0.974
- relative viability ([13]; first compound 0.6325 µM): 0.809
- relative viability ([13]; first compound 6.325 µM): 0.958
- relative viability ([13]; first compound 20 µM): 0.556
- relative viability ([14]; first compound 0.2 µM): 1.18
- relative viability ([14]; first compound 0.6325 µM): 1.08
- relative viability ([14]; first compound 2 µM): 1.09
- relative viability ([14]; first compound 6.325 µM): 1.16
- relative viability ([14]; first compound 20 µM): 1.01
- relative viability ([15]; first compound 0.2 µM): 0.212
- relative viability ([15]; first compound 0.6325 µM): 0.139
- relative viability ([15]; first compound 2 µM): 0.0997
- relative viability ([15]; first compound 6.325 µM): 0.192
- relative viability ([15]; first compound 20 µM): 0.056
- relative viability ([16]; first compound 0.2 µM): 0.722
- relative viability ([16]; first compound 0.6325 µM): 0.696
- relative viability ([16]; first compound 2 µM): 0.57
- relative viability ([16]; first compound 6.325 µM): 0.675
- relative viability ([16]; first compound 20 µM): 0.602
- relative viability ([17]; first compound 0.2 µM): 1.06
- relative viability ([17]; first compound 0.6325 µM): 0.818
- relative viability ([17]; first compound 2 µM): 0.978
- relative viability ([17]; first compound 6.325 µM): 0.988
- relative viability ([17]; first compound 20 µM): 0.917
- relative viability ([18]; first compound 0.2 µM): 1.42
- relative viability ([18]; first compound 0.6325 µM): 1.29
- relative viability ([18]; first compound 2 µM): 1.36
- relative viability ([18]; first compound 6.325 µM): 1.37
- relative viability ([18]; first compound 20 µM): 1.03
- relative viability ([19]; first compound 0.2 µM): 0.152
- relative viability ([19]; first compound 0.6325 µM): 0.188
- relative viability ([19]; first compound 2 µM): 0.158
- relative viability ([19]; first compound 6.325 µM): 0.167
- relative viability ([19]; first compound 20 µM): 0.121
- relative viability ([20]; first compound 0.2 µM): 0.264
- relative viability ([20]; first compound 0.6325 µM): 0.232
- relative viability ([20]; first compound 2 µM): 0.393
- relative viability ([20]; first compound 6.325 µM): 0.408
- relative viability ([20]; first compound 20 µM): 0.197
- relative viability ([21]; first compound 0.2 µM): 0.65
- relative viability ([21]; first compound 0.6325 µM): 0.598
- relative viability ([21]; first compound 6.325 µM): 0.688
- relative viability ([21]; first compound 20 µM): 0.249
- relative viability ([22]; first compound 0.2 µM): 1.17
- relative viability ([22]; first compound 0.6325 µM): 0.937
- relative viability ([22]; first compound 2 µM): 0.926
- relative viability ([22]; first compound 6.325 µM): 1.05
- relative viability ([22]; first compound 20 µM): 1.06
